Results reported in patent publication US10758609B2, “Cross-reactive T-cell epitopes of HIV, SIV, and FIV for vaccines in humans and cats” (priority 2015, dated 2020).
Residues, ends and D or L forms follow the SMILES beside them.

Columns and labels:
[1] = test system: CD8^+ T cells from HIV^+ subjects; assay: FACS-based intracellular staining (ICS) for cytolysin (perforin) and cytotoxins (GrzA, GrzB) in CD8+ T cells; settings: HIV-1 epitope peptide; HIV+ human subjects; threshold ≥0.2%
Description: (§1) The overlapping peptide pools of FIV and HIV-1 structural and enzyme proteins were used to stimulate the […] (PBMC) and the T cells from HIV^+ subjects as previously described for epitope mapping of HIV-1 and FIV p24 and reverse transcriptase (RT) (Sanou et al., 2013; Roff et al., 2015). The individual peptides in those peptide pools with positive responses to either interferon-γ (IFNγ) production and/or T-cell proliferation were determined with IFNγ ELISpot analysis and CFSE-based CD3^+CD4^+ and CD3^+CD8^+ T-cell proliferation analyses followed by the FACS-based intracellular staining (ICS) for cytolysin (perforin) and cytotoxin (granzyme A [GrzA] and GrzB) (Sanou et al., 2013; Roff et al., 2015). Besides viral p24 and RT proteins, the identical approach was used to identify anti-HIV/FIV T-cell epitopes on viral matrix (MA), nucleocapsid (NC), protease (PR), RNAase, integrase (IN), surface envelope (SU Env), and transmembrane envelope (TM Env) (FIG. 12).
(§2) Since our goal is to develop HIV vaccine for human use, the HIV peptides (Table 10) counterpart of the cross-reactive FIV peptides shown in Table 9 were tested with PBMC and T cells from HIV^+ subjects. The immune functions analyzed were human IFNγ production by ELISpot, cytolysin/cytotoxin production by ICS, and CFSE-based proliferation of CD3^+CD4^+ and CD3^+CD8^+ T cells from HIV^+ subjects (Table 10, the first set of results). In addition, the Los Alamos National Laboratories (LANL) database was used to identify the HLA allele(s) of the HIV epitope sequence with CTL activity that can exist within the sequence of the conserved counterpart HIV peptide (Table 9, LANL CTL). The bold HLA class-I supertypes and the bold 2-digit alleles are those on the “Optimal CD8^+ CTL Epitopes” list and those without bold are alleles for potential CTL epitope. […] The HLA class II such as HLA-DRB1 has yet to be fully classified into supertypes, and therefore the 4-digit resolution nomenclatures for the HLA-DRB1 alleles are shown.
The threshold for positive IFNγ and IL2 ELISpot responses is ≥50 spot-forming units (SFU) per 10^6 PBMC. The threshold for CFSE-based CD4^+ and CD8^+ T-cell proliferation is ≥2% CD4^+ T-cell CFSE^low or CD8^+ T-cell CFSE^low. The threshold of FACS-based intracellular cytokine staining (ICS) is ≥0.2%. […] The nine FIV peptides in black were used in the current MAP vaccine trial, whereas the 13 peptides in blue were not used. […] The MAPs and their corresponding peptide(s) were also tested for their ability to enhance or suppress in vitro FIV infection of feline PBMC (E/S of peptides and E/S of MAP).
(§3) The counterpart HIV-1 peptides of the FIV peptides were also tested for immunogenicity using PBMC and T cells from HIV^+ human subjects. […] The HRT7-1 and HRT7-2 were also tested with cells from HIV^+ subjects on ART. The threshold for positive IFNγ ELISpot response is ≥75 spot-forming units (SFU) per 10^6 PBMC. The threshold for CFSE-based CD4^+ (CD4^+ T) and CD8^+ (CD8^+ T) T-cell proliferation is ≥2% CD4^+ T-cell CFSE^low or CD8^+ T-cell CFSE^low. The threshold of intracellular cytokine staining (ICS) of FACS-based cytolysin (perforin) and cytotoxins (granzymes A and B) in CD4^+ T cells (CyCD4) and CD8^+ T cells (CyCD8) is ≥0.2%. […] The nine HIV-1 peptides in black are the counterpart FIV peptides used in the current MAP vaccine trial, whereas the 13 peptides in blue were not.

[2] = test system: CD4^+ T cells from HIV^+ subjects; settings: HIV+ human subjects; for CyCD4: CD4+ T-cell cytolysin/cytotoxins (perforin, GrzA & B), frequency of responders: HIV-1 epitope peptide, threshold ≥0.2%; for CyCD4 (cytolysin and cytotoxin production of CD4+ T cells), frequency of responders: HIV-1 peptides
Description: as §1, §2, §3

| Structure (SMILES) | CyCD8: CD8+ T-cell cytolysin/cytotoxins (perforin, GrzA & B), frequency of responders [1] | CyCD4: CD4+ T-cell cytolysin/cytotoxins (perforin, GrzA & B), frequency of responders [2] | CyCD4 (cytolysin and cytotoxin production of CD4+ T cells), frequency of responders [2] |
| --- | --- | --- | --- |
| CC[C@H](C)[C@H](NC(=O)[C@H](CC(=O)O)NC(=O)[C@@H](NC(=O)[C@H](C)NC(=O)[C@@H](NC(=O)[C@@H](NC(=O)[C@H](CC(=O)O)NC(=O)[C@@H](NC(=O)[C@@H](NC(=O)[C@H](CCCNC(=N)N)NC(=O)[C@H](CCC(=O)O)NC(=O)CN)[C@@H](C)CC)C(C)C)[C@@H](C)CC)[C@@H](C)CC)[C@@H](C)O)C(=O)N[C@@H](CCC(N)=O)C(=O)N[C@H](C(=O)N[C@@H](CCCCN)C(=O)O)[C@@H](C)O [HIN7-1] (H-GERIVDIIATDIQTK-OH; N-terminus and C-terminus assumed) | + (12.5%-25% (+)) | − (0%-1.4% (−)) | — (0%-1.4%(—)) |
| CC(C)[C@H](NC(=O)CNC(=O)[C@H](CO)NC(=O)[C@H](CCCNC(=N)N)NC(=O)[C@H](Cc1ccccc1)NC(=O)[C@H](CO)NC(=O)[C@H](CCC(=O)O)NC(=O)[C@H](CCC(=O)O)NC(=O)[C@@H]1CCCN1C(=O)[C@@H]1CCCN1C(=O)[C@H](C)NC(=O)[C@@H](N)[C@@H](C)O)C(=O)N[C@@H](CCC(=O)O)C(=O)N[C@H](C(=O)N[C@H](C(=O)N[C@H](C(=O)O)[C@@H](C)O)[C@@H](C)O)[C@@H](C)O [HNC2] (H-TAPPEESFRSGVETTT-OH; N-terminus and C-terminus assumed) | + (12.5%-25% (+)) | − (0%-1.4% (−)) |  |
| CC(C)C[C@H](NC(=O)[C@H](C)NC(=O)[C@@H](N)CCC(=O)O)C(=O)N[C@@H](CC(C)C)C(=O)N[C@@H](CC(=O)O)C(=O)N[C@H](C(=O)NCC(=O)N[C@@H](C)C(=O)N[C@@H](CC(=O)O)C(=O)N[C@@H](CC(=O)O)C(=O)N[C@H](C(=O)N[C@H](C(=O)N[C@@H](CC(C)C)C(=O)N[C@@H](CCC(=O)O)C(=O)O)C(C)C)[C@@H](C)O)[C@@H](C)O [HPR2] (H-EALLDTGADDTVLE-OH; N-terminus and C-terminus assumed) | − (0%-1.4% (−)) | − (0%-1.4% (−)) |  |
| CC(C)C[C@H](NC(=O)[C@H](CCC(=O)O)NC(=O)[C@H](CCCNC(=N)N)NC(=O)[C@H](Cc1ccccc1)NC(=O)[C@H](CC(=O)O)NC(=O)[C@@H](NC(=O)[C@H](CC(C)C)NC(=O)[C@H](CCCCN)NC(=O)[C@H](CCCNC(=N)N)NC(=O)[C@@H](N)Cc1c[nH]c2ccccc12)C(C)C)C(=O)N[C@@H](CC(N)=O)C(=O)N[C@@H](CCCCN)C(=O)N[C@@H](CCCNC(=N)N)C(=O)O [HRT3-4] | ++++ (>54% (++++)) | ++++ (>54% (++++)) | ++++ (>54% (++++)) |
| CC[C@H](C)[C@H](NC(=O)CN)C(=O)N[C@@H](CCCNC(=N)N)C(=O)N[C@@H](Cc1ccc(O)cc1)C(=O)N[C@@H](CCC(N)=O)C(=O)N[C@@H](Cc1ccc(O)cc1)C(=O)N[C@@H](CC(N)=O)C(=O)N[C@H](C(=O)N[C@@H](CC(C)C)C(=O)N1CCC[C@H]1C(=O)N[C@@H](CCC(N)=O)C(=O)NCC(=O)N[C@@H](Cc1c[nH]c2ccccc12)C(=O)N[C@@H](CCCCN)C(=O)NCC(=O)O)C(C)C [HRT7-1] | − (0%-1.4% (−)) | − (0%-1.4% (−)) |  |
| CC[C@H](C)[C@H](NC(=O)[C@H](C)NC(=O)[C@@H]1CCCN1C(=O)[C@H](CO)NC(=O)CNC(=O)[C@H](CCCCN)NC(=O)[C@H](Cc1c[nH]c2ccccc12)NC(=O)CNC(=O)[C@H](CCC(N)=O)NC(=O)[C@@H]1CCCN1C(=O)[C@H](CC(C)C)NC(=O)[C@@H](NC(=O)[C@@H](N)CC(N)=O)C(C)C)C(=O)N[C@@H](Cc1ccccc1)C(=O)O [HRT7-2] | − (0%-1.4% (−)) | − (0%-1.4% (−)) |  |
| CC[C@H](C)[C@H](NC(=O)[C@H](CCCCN)NC(=O)[C@@H](NC(=O)[C@@H](NC(=O)[C@H](CCCCN)NC(=O)[C@H](Cc1ccc(O)cc1)NC(=O)[C@H](CCCCN)NC(=O)[C@H](Cc1ccc(O)cc1)NC(=O)[C@H](CC(C)C)NC(=O)[C@H](CCC(=O)O)NC(=O)[C@H](CO)NC(=O)[C@H](CCCNC(=N)N)NC(=O)[C@H](Cc1c[nH]c2ccccc12)NC(=O)[C@H](CC(N)=O)NC(=O)[C@@H](N)CC(=O)O)C(C)C)C(C)C)C(=O)O [HSU4] (H-DNWRSELYKYKVVKI-OH; N-terminus and C-terminus assumed) | + (12.5%-25% (+)) | − (0%-1.4% (−)) |  |
| CC[C@H](C)[C@H](NC(=O)CNC(=O)[C@H](CC(C)C)NC(=O)[C@H](CC(C)C)NC(=O)[C@H](CCC(N)=O)NC(=O)[C@H](CCC(N)=O)NC(=O)[C@H](CC(=O)O)NC(=O)[C@H](CCCCN)NC(=O)[C@H](CC(C)C)NC(=O)[C@@H](N)Cc1ccc(O)cc1)C(=O)N[C@@H](Cc1c[nH]c2ccccc12)C(=O)NCC(=O)N[C@@H](CS)C(=O)O [HTM4-3] (H-YLKDQQLLGIWGC-OH; N-terminus and C-terminus assumed) | + (12.5%-25% (+)) | − (0%-1.4% (−)) |  |
| CC[C@H](C)[C@H](N)C(=O)N1CCC[C@H]1C(=O)N[C@H](C(=O)NCC(=O)N[C@@H](CCC(=O)O)C(=O)N[C@H](C(=O)N[C@@H](Cc1ccc(O)cc1)C(=O)N[C@@H](CCCCN)C(=O)N[C@@H](CCCNC(=N)N)C(=O)N[C@@H](Cc1c[nH]c2ccccc12)C(=O)N[C@H](C(=O)N[C@H](C(=O)N[C@@H](CC(C)C)C(=O)NCC(=O)O)[C@@H](C)CC)[C@@H](C)CC)[C@@H](C)CC)C(C)C [Hp9-3(10-3)] |  |  | + (12.5%-25% (+)) |
| CSCC[C@H](NC(=O)[C@H](Cc1c[nH]c2ccccc12)NC(=O)[C@H](CC(N)=O)NC(=O)[C@H](CCCCN)NC(=O)[C@@H](NC(=O)[C@H](CCC(=O)O)NC(=O)[C@H](CCC(N)=O)NC(=O)[C@H](CO)NC(=O)[C@H](C)N)C(C)C)C(=O)N[C@H](C(=O)N[C@@H](CCC(=O)O)C(=O)N[C@H](C(=O)N[C@@H](CC(C)C)C(=O)N[C@@H](CC(C)C)C(=O)N[C@H](C(=O)O)C(C)C)[C@@H](C)O)[C@@H](C)O [Hp14-2(15-2)] (H-ASQEVKNWMTETLLV-OH; N-terminus and C-terminus assumed) |  |  | ++++ (>54% (++++)) |
| CSCC[C@H](NC(=O)[C@H](Cc1c[nH]c2ccccc12)NC(=O)[C@H](CC(N)=O)NC(=O)[C@H](CCCCN)NC(=O)[C@@H](N)C(C)C)C(=O)N[C@H](C(=O)N[C@@H](CCC(=O)O)C(=O)N[C@H](C(=O)N[C@@H](CC(C)C)C(=O)N[C@@H](CC(C)C)C(=O)N[C@H](C(=O)N[C@@H](CCC(N)=O)C(=O)N[C@@H](CC(N)=O)C(=O)N[C@@H](C)C(=O)N[C@@H](CC(N)=O)C(=O)O)C(C)C)[C@@H](C)O)[C@@H](C)O [Hp14-3(15-3)] (H-VKNWMTETLLVQNAN-OH; N-terminus and C-terminus assumed) |  |  | ++++ (>54% (++++)) |
